Assay results as given in PMC6927504, “Screening of House Dust from Chinese Homes for Chemicals with Liver X Receptors Binding Activities and Characterization of Atherosclerotic Activity Using an in Vitro Macrophage Cell Line and ApoE^−/− Mice” (Environmental Health Perspectives, 2019).

Legend:
ABCG1 = experiment: qRT-PCR of LXR target gene ABCG1 in RAW264.7 macrophages; format: cell-based; settings: vehicle-treated cells set to 1
Protocol: RAW264.7 cells were obtained from the National Infrastructure of Cell Line Resource of Beijing, China, and the cells used for the experiment were cultured for at least three passages. Dulbecco’s Modified Eagle’s Medium (DMEM)-F12 medium containing 10% fetal bovine serum (FBS) was employed to culture the RAW264.7 cells. RAW264.7 cells were incubated at 37°C with 5% carbon dioxide. The RAW264.7 cells were plated at 2.5×10^5 cells/well (6-well plates), 6.0×10^4 cells/well (24-well plates), and 10^4 cells/well (96-well plates). The RAW264.7 cells were plated and grown overnight; then the medium was removed and fresh DMEM-F12 contained with 0.1% DMSO (control; n=3 ) or TPHP at the concentrations of 1–20,000 nM ( n=3 per group) was added. […] Then the cells were used for the quantitative reverse transcription (qRT)-PCR, cellular cholesterol efflux assay, and foam cell formation experiment.
Total RNA was isolated from RAW264.7 cells and mouse peritoneal macrophages using TRIzol reagent according to the manufacturer’s instructions. Then a Nanovue Plus™ spectrophotometer (GE Healthcare Life Science) was used to analyze the concentration, quality, and purity of the RNA. Total RNA ( 1μg ) was mixed with oligo deoxythymine (dT) ( 1μL ) at 70°C for 5 min and then combined with a mixture containing Moloney murine leukemia virus (MMLV) reverse transcriptase ( 1μL ), deoxy-ribonucleoside triphosphate (dNTP) ( 1.25μL ), Recombinant RNasin® Ribonuclease Inhibitor (Promega) ( 0.65μL ), and MMLV buffer ( 5μL ) at 42°C for 60 min. The SYBR® Green PCR Kit (TOYOBO) was used for RT-PCR analysis. Real-time fluorescence detection was performed using the StepOnePlus™ sequence detection system (Applied Biosystems). […] The following primers were designed and purchased from Sangon Biotech:
• actin: 5′-[…]-3′ and 5′-[…]-3′ ATP-binding cassette transporter A1 (ABCA1): 5′-[…]-3′ and 5′-[…]-3′ • ATP-binding cassette transporter G1 (ABCG1): 5′-[…]-3′ and 5′-[…]-3′.

ABCA1 = experiment: qRT-PCR of ABCA1 in peritoneal macrophages isolated from exposed C57BL/6 mice; format: in vivo, mouse; settings: 200 mg/kg BW oral gavage for 7 d, control set to 1, p<0.01
Protocol: Total RNA was isolated from RAW264.7 cells and mouse peritoneal macrophages using TRIzol reagent according to the manufacturer’s instructions. Then a Nanovue Plus™ spectrophotometer (GE Healthcare Life Science) was used to analyze the concentration, quality, and purity of the RNA. Total RNA ( 1μg ) was mixed with oligo deoxythymine (dT) ( 1μL ) at 70°C for 5 min and then combined with a mixture containing Moloney murine leukemia virus (MMLV) reverse transcriptase ( 1μL ), deoxy-ribonucleoside triphosphate (dNTP) ( 1.25μL ), Recombinant RNasin® Ribonuclease Inhibitor (Promega) ( 0.65μL ), and MMLV buffer ( 5μL ) at 42°C for 60 min. The SYBR® Green PCR Kit (TOYOBO) was used for RT-PCR analysis. Real-time fluorescence detection was performed using the StepOnePlus™ sequence detection system (Applied Biosystems). […]
All experiments related to animals were approved by the institutional animal care and use committee of Peking University and followed the guidelines for animal experiments of the university as well as for experimental animals in China. […] Body weight (BW) was measured every week during the dosing period. […] Considering that this study assessed the effects of short-term exposure to TPHP, whereas humans are exposed to TPHP over a lifelong period, the present study used exposure doses that were higher than that of human exposure from house dust. […]

O=P(Oc1ccccc1)(Oc1ccccc1)Oc1ccccc1 [TPHP, triphenyl phosphate]
ABCG1 gene expression relative to control (ABCG1; 100 nM, p<0.05): 0.87±0.05 fold | ABCG1 gene expression relative to control (ABCG1; 1,000 nM, p<0.05): 0.80±0.06 fold | ABCG1 gene expression relative to control (ABCG1; 5,000 nM, p<0.01): 0.52±0.02 fold | ABCG1 gene expression relative to control (ABCG1; 10,000 nM, p<0.01): 0.42±0.05 fold | ABCG1 gene expression relative to control (ABCG1; 20,000 nM, p<0.01): 0.28±0.02 fold | ABCA1 gene expression in peritoneal macrophages relative to control (ABCA1): 0.51±0.07 fold
